Data from patent US20060178513A1, “Pyridinylanilides” (priority 2003, published 2006).
Where two headings read alike, the source gives them in different places.

Assays:
[1] = logP determination by HPLC (reversed-phase C 18), EEC Directive 79/831 Annex V.A8; assay type: physicochemical
Method: The logP values given in the Preparation Examples were determined in accordance with EEC Directive 79/831 Annex V.A8 by HPLC (High Performance Liquid Chromatography) using a reversed-phase column (C 18). Temperature: 43° C. Mobile phases for the determination in the acidic range: 0.1% aqueous phosphoric acid, acetonitrile; linear gradient from 10% acetonitrile to 90% acetonitrile. Calibration was carried out using straight-chain alkan-2-ones (having 3 to 16 carbon atoms) with known logp values (determination of the logp values by the retention times using linear interpolation between two successive alkanones).

Podosphaera leucotricha = assay: Podosphaera test (apple)/protective; assay type: in vivo; conditions: topical, 240 h, apple plants, protective, application rate 100 g/ha, evaluation 10 days after inoculation, read-out: Efficacy in %
Method: [table] To produce a suitable preparation of active compound, 1 part by weight of active compound is mixed with the stated amounts of solvent and emulsifier, and the concentrate is diluted with water to the desired concentration. To test for protective activity, young plants are sprayed with the preparation of active compound at the stated application rate. After the spray coating has dried on, the plants are inoculated with an aqueous spore suspension of the apple mildew pathogen Podosphaera leucotricha. The plants are then placed in a greenhouse at about 23° C. and a relative atmospheric humidity of about 70%. Evaluation is carried out 10 days after the inoculation. 0% means an efficacy which corresponds to that of the control, whereas an efficacy of 100% means that no infection is observed.

Pyrenophora teres = Pyrenophora teres test (barley)/protective; assay type: in vivo; conditions: barley plants, protective, application rate 500 g/ha, evaluation 8 days after inoculation
Method: (§1) [table] To produce a suitable preparation of active compound, 1 part by weight of active compound is mixed with the stated amount of solvent and emulsifier, and the concentrate is diluted with water to the desired concentration. To test for protective activity, young plants are sprayed with the preparation of active compound at the stated application rate. After the spray coating has dried on, the plants are sprayed with a conidia suspension of Pyrenophora teres. The plants remain in an incubation cabin at 20° C. and 100% relative atmospheric humidity for 48 hours. The plants are then placed in a greenhouse at a temperature of about 20° C. and a relative atmospheric humidity of about 80%. Evaluation is carried out 8 days after the inoculation. 0% means an efficacy which corresponds to that of the control, whereas an efficacy of 100% means that no infection is observed.

Puccinia recondita = assay: Puccinia test (wheat)/protective; assay type: in vivo; conditions: wheat plants, protective, application rate 500 g/ha, evaluation 10 days after inoculation
Method: as §1, with “stated amounts” for “stated amount”, “of Puccinia recondita.” for “of Pyrenophora teres.”, “of approximately” for “of about”, “of 80% to promote the development of rust pustules.” for “of about 80%.”, “out 10” for “out 8”

Alternaria solani = assay: Alternaria test (tomato)/protective; assay type: in vivo; conditions: tomato plants, protective, application rate 750 g/ha, evaluation 7 days after inoculation
Method: [table] To produce a suitable preparation of active compound, 1 part by weight of active compound is mixed with the stated amounts of solvent and emulsifier, and the concentrate is diluted with water to the desired concentration. To test for protective activity, young tomato plants are sprayed with the preparation of active compound at the stated application rate. 1 day after the treatment, the plants are inoculated with a spore suspension of Alternaria solani and then remain at 100% rel. humidity and 20° C. for 24 h. The plants then remain at 96% rel. atmospheric humidity and a temperature of 20° C. Evaluation was carried out 7 days after the inoculation. 0% means an efficacy which corresponds to that of the control, whereas an efficacy of 100% means that no infection is observed.

Venturia inaequalis = assay: Venturia Test (Apple)/protective; assay type: in vivo; conditions: topical, 240 h, apple plants, protective, application rate 100 g/ha, evaluation 10 days after inoculation, read-out: Efficacy in %
Method: [table] To produce a suitable preparation of the active compound, 1 part by weight of active compound is mixed with the stated amounts of solvents and emulsifier, and the concentrate is diluted with water to the desired concentration. To test for protective activity, young plants are sprayed with the preparation of active compound at the stated application rate. After the spray coating has dried on, the plants are inoculated with an aqueous conidia suspension of the apple scab pathogen Venturia inaequalis and then remain in an incubation cabin at about 20° C. and 100% relative atmospheric humidity for 1 day. The plants are then placed in a greenhouse at about 21° C. and a relative atmospheric humidity of about 90%. Evaluation is carried out 10 days after the inoculation. 0% means an efficacy which corresponds to that of the control, whereas an efficacy of 100% means that no infection is observed.

[2] = reversed-phase HPLC column (C 18), HPLC, reversed-phase C 18, 43° C., acidic range (0.1% aqueous phosphoric acid/acetonitrile), read-out: logP
[3] = reversed-phase HPLC column (C 18), pH 2.3, HPLC, reversed-phase C 18, 43° C., read-out: log P (pH 2.3)

Row | SMILES | chromatographic logP [1, 2] | pest or weed control at 100 g/ha (Podosphaera leucotricha) [%] | pest or weed control at 100 g/ha (Venturia inaequalis) [%] | further results
1 | Cn1cc(C(=O)Nc2ccccc2-c2ccc(Cl)nc2)c(C(F)F)n1 [1-6-7] | 2.1 | 98 | – | –
2 | Cc1nn(C)c(F)c1C(=O)Nc1ccccc1-c1ccnc(Br)c1 [1-7-4] | 2.02 | – | – | Efficacy in % (Pyrenophora teres): 93%; Efficacy in % (Puccinia recondita): 100%
3 | O=C(Nc1ccccc1-c1ccnc(Br)c1)c1ccccc1C(F)(F)F [1-7-5] | 2.85 | – | – | Efficacy in % (Pyrenophora teres): 93%
4 | Cn1cc(C(=O)Nc2ccccc2-c2ccnc(Br)c2)c(C(F)F)n1 [1-7-6] | 2.13 | – | – | Efficacy in % (Alternaria solani): 95%; Efficacy in % (Pyrenophora teres): 93%; Efficacy in % (Puccinia recondita): 100%
5 | Cn1nc(C(F)(F)F)c(C(=O)Nc2ccccc2-c2cc(Cl)nc(Cl)c2)c1F [1-7-9] | – | – | 100 | –
6 | Cc1nc(C(F)(F)F)c(C(=O)Nc2ccccc2-c2cc(Cl)nc(Cl)c2)s1 [1-7-10] | 3.27 | 100 | 100 | Efficacy in % (Alternaria solani): 100%
7 | O=C(Nc1ccccc1-c1ncc(C(F)(F)F)cc1Cl)c1ccccc1C(F)(F)F [1-8-1] | 3.59 | 100 | 100 | chromatographic logP [1, 3]: 3.58; Efficacy in % (Puccinia recondita): 100%
8 | Cc1occc1C(=O)Nc1ccccc1-c1ncc(C(F)(F)F)cc1Cl [1-8-2] | 3.44 | – | – | Efficacy in % (Alternaria solani): 100%; Efficacy in % (Pyrenophora teres): 100%; Efficacy in % (Puccinia recondita): 100%
9 | Cc1ccsc1C(=O)Nc1ccccc1-c1ncc(C(F)(F)F)cc1Cl [1-8-3] | 3.83 | 100 | 100 | Efficacy in % (Alternaria solani): 95%; Efficacy in % (Pyrenophora teres): 100%; Efficacy in % (Puccinia recondita): 100%
10 | O=C(Nc1ccccc1-c1ccc(C(F)(F)F)cn1)c1ccccc1C(F)(F)F [1-8-9] | 4.13 | 97 | – | Efficacy in % (Alternaria solani): 95%
11 | O=C(Nc1ccccc1-c1ccc(Cl)cn1)c1cccnc1Cl [1-8-10] | 2.95 | 100 | 100 | Efficacy in % (Pyrenophora teres): 100%; Efficacy in % (Puccinia recondita): 94%
12 | Cc1nn(C)c(F)c1C(=O)Nc1ccccc1-c1ccc(Cl)cn1 [1-8-11] | 3.06 | 95 | 100 | –
13 | O=C(Nc1ccccc1-c1ccc(Cl)cn1)c1ccccc1C(F)(F)F [1-8-12] | 4 | 92 | 100 | –
14 | Cn1cc(C(=O)Nc2ccccc2-c2ccc(Cl)cn2)c(C(F)F)n1 [1-8-14] | 3.05 | – | 100 | Efficacy in % (Pyrenophora teres): 94%
15 | CON=Cc1ccc(-c2ccccc2NC(=O)c2cccnc2Cl)nc1 [1-8-15, 2-chloro-N-{2-[5-(E)methoxyimino-methyl)-pyridin-2-yl]-phenyl}-nicotinamide] | 2.95 | – | – | chromatographic logP [1, 3]: 2.95
16 | O=C(Nc1ccccc1-c1ncc(C(F)(F)F)cc1Cl)c1ccccc1Cl [1-8-20] | 3.45 | 100 | – | –
17 | O=C(Nc1ccccc1-c1ncc(C(F)(F)F)cc1Cl)c1ccccc1Br [1-8-21] | 3.49 | 100 | – | –
18 | O=C(Nc1ccccc1-c1ncc(C(F)(F)F)cc1Cl)C1=C(C(F)(F)F)OCCS1 [1-8-25] | 3.43 | – | 99 | –
19 | Cn1cc(C(=O)Nc2ccccc2-c2ncc(C(F)(F)F)cc2Cl)c(C(F)F)n1 [1-8-27] | 2.91 | 97 | 100 | –
20 | Cc1nc(C(F)(F)F)c(C(=O)Nc2ccccc2-c2ncc(C(F)(F)F)cc2Cl)s1 [1-8-28] | 3.48 | 96 | 98 | –
21 | Cn1cc(C(=O)Nc2ccccc2-c2ncc(C(F)(F)F)cc2Cl)c(C(F)(F)F)n1 [1-8-29] | 3.13 | – | 98 | –
22 | Cn1cc(C(=O)Nc2ccccc2-c2ncc(C(F)(F)F)cc2Cl)c(I)n1 [1-8-30] | 2.92 | – | 92 | –
23 | Nc1ccccc1-c1ncc(C(F)(F)F)cc1Cl [III-1, 2-[3-chloro-5-(trifluoromethyl)-2-pyridinyl]aniline] | – | – | – | chromatographic logP [1, 3]: 2.79
24 | CO/N=C/c1ccc(-c2ccccc2N)nc1 [III-2, 6-(2-amino-phenyl)-pyridine-3-carbaldehyde (E)-O-methyl-oxime] | – | – | – | chromatographic logP [1, 3]: 1.59
25 | O=C(Nc1ccccc1I)c1ccccc1C(F)(F)F [IV-1] | – | – | – | chromatographic logP [1, 3]: 2.98
26 | CO/N=C/c1ccc(Br)nc1 [VII-1, 6-bromo-pyridine-3-carbaldehyde (E)-O-methyl-oxime] | – | – | – | chromatographic logP ([1]; pH 2.3): 2.16
